Measured values reported in US12139520B2 (priority 2020, dated 2024).
pEC50: −log10 of the molar value. Bridge positions count the residues as written; N and C are the ends. Square brackets hold non-standard residues; d marks the D form. Peptide text beside a SMILES is read from it. Hyp = O=C(O)[C@@H]1C[C@@H](O)CN1; Cit = NC(=O)NCCC[C@H](N)C(=O)O

Experiments:
[1] = target: T1, hAMY3 receptor (Homo sapiens, UniProt O60896+P30988); assay: cAMP assay for in vitro receptor activation, hAMY3-R; format: cell-based; details: cAMP assay, hAMY3 receptor; read-out: hAMY3R EC50
T1 sequence (P30988 25-474): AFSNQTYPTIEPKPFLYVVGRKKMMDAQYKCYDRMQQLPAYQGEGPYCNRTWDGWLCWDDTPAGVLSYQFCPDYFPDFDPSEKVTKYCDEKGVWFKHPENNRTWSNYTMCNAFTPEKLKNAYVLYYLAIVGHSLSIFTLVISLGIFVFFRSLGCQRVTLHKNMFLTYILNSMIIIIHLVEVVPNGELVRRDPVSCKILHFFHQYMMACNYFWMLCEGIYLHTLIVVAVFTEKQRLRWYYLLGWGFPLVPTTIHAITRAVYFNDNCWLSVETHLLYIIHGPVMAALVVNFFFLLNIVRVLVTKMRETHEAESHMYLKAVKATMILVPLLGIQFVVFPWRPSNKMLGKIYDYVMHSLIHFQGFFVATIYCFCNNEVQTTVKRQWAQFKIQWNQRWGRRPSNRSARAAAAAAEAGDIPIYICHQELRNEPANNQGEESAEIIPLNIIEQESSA
T1 sequence (O60896 24-148 partner): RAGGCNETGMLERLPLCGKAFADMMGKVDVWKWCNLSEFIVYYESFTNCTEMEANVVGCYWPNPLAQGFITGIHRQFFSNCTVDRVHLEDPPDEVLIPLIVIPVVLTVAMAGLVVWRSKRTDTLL
Summary of the method: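 Monoclonal cell line stably overexpressing hAMY3 receptor, plated in DPBS with 0.05% casein and 0.5 mM IBMX, was stimulated with graded compound doses for 30 min at room temperature. cAMP accumulation was read by time-resolved FRET one hour after adding detection reagents.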

[2] = target: hAM1 receptor (Homo sapiens, UniProt O60895+Q16602); assay: cAMP assay for in vitro receptor activation, hAM1-R; format: cell-based; details: cAMP assay, hAM1 receptor; read-out: hAM1R EC50
Chain of hAM1 receptor (Q16602 23-461): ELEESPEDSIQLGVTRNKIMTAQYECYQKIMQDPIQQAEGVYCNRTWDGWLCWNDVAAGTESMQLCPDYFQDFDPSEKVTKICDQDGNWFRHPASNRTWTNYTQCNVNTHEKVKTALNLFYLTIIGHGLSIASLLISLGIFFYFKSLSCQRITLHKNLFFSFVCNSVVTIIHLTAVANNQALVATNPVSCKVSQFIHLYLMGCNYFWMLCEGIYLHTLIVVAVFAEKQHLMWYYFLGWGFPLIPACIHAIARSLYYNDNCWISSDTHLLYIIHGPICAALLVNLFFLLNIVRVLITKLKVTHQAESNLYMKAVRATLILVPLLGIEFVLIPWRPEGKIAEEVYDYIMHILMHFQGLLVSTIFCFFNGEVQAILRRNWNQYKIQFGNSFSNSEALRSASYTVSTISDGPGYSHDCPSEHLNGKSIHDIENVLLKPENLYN
Chain of hAM1 receptor (O60895 43-175 partner): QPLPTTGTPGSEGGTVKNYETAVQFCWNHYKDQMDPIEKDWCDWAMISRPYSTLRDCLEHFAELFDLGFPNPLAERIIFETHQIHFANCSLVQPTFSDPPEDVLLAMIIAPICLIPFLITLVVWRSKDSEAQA
Summary of the method: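 cAMP accumulation was measured in a monoclonal cell line stably overexpressing the hAM1 receptor. Frozen aliquots were thawed and plated at 8000 cells/well in DPBS containing 0.05% casein and 0.5 mM IBMX.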

[3] = Physical stability of peptide analogues (Thioflavin T fibrillation); format: physicochemical; details: maximum ThT signal normalized between hAMY maximum and buffer background; 40° C., shaking, four days; pH 7 per table title
Summary of the method: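 Samples are stressed at 40 °C for four days, being shaken at 700 rpm before each 10-min fluorescence reading of 4 μM Thioflavin T. Buffers were pH 4 acetate or pH 7 phosphate. Reported values are smoothed maximum ThT signals as a percentage of the hAMY-to-background range.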

pEC50 [1]	pEC50 [2]	Max ThT signal (%) [3]	SMILES
11.40	< 5.30	5.550%	CC[C@H](C)[C@H](NC(=O)[C@H](CCC(N)=O)NC(=O)[C@H](Cc1c[nH]cn1)NC(=O)[C@H](C)NC(=O)[C@H](CC(C)C)NC(=O)[C@H](Cc1c[nH]c2ccccc12)NC(=O)[C@H](CCC(N)=O)NC(=O)[C@@H](NC(=O)[C@@H](NC(=O)[C@@H]1CSSC[C@H](NC(=O)[C@@H](N)CCCCN)C(=O)N[C@@H](CC(N)=O)C(=O)N[C@@H]([C@@H](C)O)C(=O)N[C@@H](C)C(=O)N[C@@H]([C@@H](C)O)C(=O)N1)[C@@H](C)O)C(C)C)C(=O)N[C@@H](Cc1ccc(O)cc1)C(=O)N[C@@H](CCC(N)=O)C(=O)N[C@@H](Cc1ccccc1)C(=O)N[C@H](C(=O)N[C@@H](CCCCN)C(=O)N[C@@H](CC(=O)O)C(=O)N[C@@H](CCCCN)C(=O)N[C@@H](CC(=O)O)C(=O)N[C@@H](CC(N)=O)C(=O)N[C@H](C(=O)N[C@@H](C)C(=O)N1CCC[C@H]1C(=O)N1CCC[C@H]1C(=O)N[C@H](C(=O)N[C@@H](CC(N)=O)C(=O)N[C@H](C(=O)NCC(=O)N[C@@H](CO)C(=O)N[C@@H](CC(N)=O)C(=O)NCC(=O)N1C[C@H](O)C[C@H]1C(N)=O)C(C)C)[C@@H](C)O)C(C)C)[C@@H](C)O [compound 317] (H-KCNTATCTVQWLAHQIYQFTKDKDNVAPPTNVGSNG[Hyp]-NH2; disulfide 2-7; N-terminus assumed)
11.52	< 5.30	3.500%	CC[C@H](C)[C@H](NC(=O)[C@H](CCC(N)=O)NC(=O)[C@H](CC(=O)O)NC(=O)[C@H](C)NC(=O)[C@H](CC(C)C)NC(=O)[C@H](Cc1c[nH]c2ccccc12)NC(=O)[C@H](C)NC(=O)[C@@H](NC(=O)[C@@H](NC(=O)[C@@H]1CSSC[C@H](NC(=O)[C@@H](N)CCCCN)C(=O)N[C@@H](CC(N)=O)C(=O)N[C@@H]([C@@H](C)O)C(=O)N[C@@H](CO)C(=O)N[C@@H]([C@@H](C)O)C(=O)N1)[C@@H](C)O)C(C)C)C(=O)N[C@H](C(=O)N[C@@H](CCC(N)=O)C(=O)N[C@@H](Cc1ccccc1)C(=O)N[C@@H](CO)C(=O)N[C@@H](CC(=O)O)C(=O)N[C@@H](CCCCN)C(=O)N[C@@H](CC(=O)O)C(=O)N[C@@H](CCCCN)C(=O)N[C@@H](C)C(=O)N[C@@H](CC(N)=O)C(=O)N[C@H](C(=O)N[C@@H](CO)C(=O)N1CCC[C@H]1C(=O)N1CCC[C@H]1C(=O)N[C@H](C(=O)N[C@@H](CCC(=O)O)C(=O)N[C@H](C(=O)NCC(=O)N1CCC[C@H]1C(=O)N[C@@H](CC(N)=O)C(=O)N[C@@H](CO)C(=O)N1C[C@H](O)C[C@H]1C(N)=O)C(C)C)[C@@H](C)O)C(C)C)[C@@H](C)O [compound 310] (H-KCNTSTCTVAWLADQITQFSDKDKANVSPPTEVGPNS[Hyp]-NH2; disulfide 2-7)

The remaining lines, values behind:

SMILES	pEC50 [1]	pEC50 [2]	Max ThT signal (%) [3]
CC[C@H](C)[C@H](NC(=O)[C@H](CCC(N)=O)NC(=O)[C@H](Cc1c[nH]cn1)NC(=O)[C@H](C)NC(=O)[C@H](CC(C)C)NC(=O)[C@H](CCCNC(N)=O)NC(=O)[C@H](CCC(N)=O)NC(=O)[C@@H](NC(=O)[C@@H](NC(=O)[C@@H]1CSSC[C@H](NC(=O)CN)C(=O)N[C@@H](CCCNC(=N)N)C(=O)N[C@@H](Cc2ccccc2)C(=O)NCC(=O)N[C@@H]([C@@H](C)O)C(=O)N1)[C@@H](C)O)C(C)C)C(=O)N[C@@H](Cc1ccc(O)cc1)C(=O)N[C@@H](CCC(N)=O)C(=O)N[C@@H](Cc1ccccc1)C(=O)N[C@H](C(=O)N[C@@H](CC(=O)O)C(=O)N[C@@H](CCCCN)C(=O)N[C@@H](CC(=O)O)C(=O)N[C@@H](CCCCN)C(=O)N[C@@H](CC(=O)O)C(=O)N[C@@H](CC(N)=O)C(=O)N[C@H](C(=O)N[C@@H](C)C(=O)N1CCC[C@H]1C(=O)N[C@@H](CCCNC(=N)N)C(=O)N[C@@H](CO)C(=O)N[C@@H](CC(N)=O)C(=O)N[C@H](C(=O)N[C@@H](CO)C(=O)N1CCC[C@H]1C(=O)N[C@@H](CCC(N)=O)C(=O)NCC(=O)N1C[C@H](O)C[C@H]1C(N)=O)C(C)C)C(C)C)[C@@H](C)O [compound 293] (H-GCRFGTCTVQ[Cit]LAHQIYQFTDKDKDNVAPRSNVSPQG[Hyp]-NH2; disulfide 2-7; N-terminus assumed)	10.20	< 5.30	24.200%
CC[C@H](C)[C@H](NC(=O)[C@H](CCC(N)=O)NC(=O)[C@H](Cc1c[nH]cn1)NC(=O)[C@H](C)NC(=O)[C@H](CC(C)C)NC(=O)[C@H](CCCNC(=N)N)NC(=O)[C@H](CCC(N)=O)NC(=O)[C@@H](NC(=O)[C@@H](NC(=O)[C@@H]1CSSC[C@H](NC(=O)[C@@H](N)CCCCN)C(=O)N[C@@H](CC(N)=O)C(=O)N[C@@H]([C@@H](C)O)C(=O)N[C@@H](C)C(=O)N[C@@H]([C@@H](C)O)C(=O)N1)[C@@H](C)O)C(C)C)C(=O)N[C@@H](Cc1ccc(O)cc1)C(=O)N[C@@H](CCC(N)=O)C(=O)N[C@@H](Cc1ccccc1)C(=O)N[C@H](C(=O)N[C@@H](CC(=O)O)C(=O)N[C@@H](CCCCN)C(=O)N[C@@H](CC(=O)O)C(=O)N[C@@H](C)C(=O)N[C@@H](CC(=O)O)C(=O)N[C@@H](CC(N)=O)C(=O)N[C@H](C(=O)N[C@@H](C)C(=O)N1CCC[C@H]1C(=O)N1CCC[C@H]1C(=O)N[C@H](C(=O)N[C@@H](CC(N)=O)C(=O)N[C@H](C(=O)NCC(=O)N[C@@H](CO)C(=O)N[C@@H](CC(N)=O)C(=O)NCC(=O)N1C[C@H](O)C[C@H]1C(N)=O)C(C)C)[C@@H](C)O)C(C)C)[C@@H](C)O [compound 25] (H-KCNTATCTVQRLAHQIYQFTDKDADNVAPPTNVGSNG[Hyp]-NH2; disulfide 2-7; N-terminus assumed)	11.10	< 5.30	33.400%
CC[C@H](C)[C@H](NC(=O)[C@H](CCC(N)=O)NC(=O)[C@H](Cc1c[nH]cn1)NC(=O)[C@H](C)NC(=O)[C@H](CC(C)C)NC(=O)[C@H](CCCNC(N)=O)NC(=O)[C@H](CCC(N)=O)NC(=O)[C@@H](NC(=O)[C@@H](NC(=O)[C@@H]1CSSC[C@H](NC(=O)CN)C(=O)N[C@@H](CCCNC(=N)N)C(=O)N[C@@H]([C@@H](C)O)C(=O)NCC(=O)N[C@@H]([C@@H](C)O)C(=O)N1)[C@@H](C)O)C(C)C)C(=O)N[C@@H](Cc1ccc(O)cc1)C(=O)N[C@@H](CCC(N)=O)C(=O)N[C@@H](Cc1ccccc1)C(=O)N[C@H](C(=O)N[C@@H](CC(=O)O)C(=O)N[C@@H](CCCCN)C(=O)N[C@@H](CC(=O)O)C(=O)N[C@@H](CCCCN)C(=O)N[C@@H](CC(=O)O)C(=O)N[C@@H](CC(N)=O)C(=O)N[C@H](C(=O)N[C@@H](C)C(=O)N1CCC[C@H]1C(=O)N[C@@H](CCCNC(=N)N)C(=O)N[C@H](C(=O)N[C@@H](CC(N)=O)C(=O)N[C@H](C(=O)NCC(=O)N1CCC[C@H]1C(=O)N[C@@H](CCC(N)=O)C(=O)NCC(=O)N1C[C@H](O)C[C@H]1C(N)=O)C(C)C)[C@@H](C)O)C(C)C)[C@@H](C)O [compound 261] (H-GCRTGTCTVQ[Cit]LAHQIYQFTDKDKDNVAPRTNVGPQG[Hyp]-NH2; disulfide 2-7; N-terminus assumed)	10.74	< 5.30	22.650%
CC[C@H](C)[C@H](NC(=O)[C@H](CCC(N)=O)NC(=O)[C@H](Cc1c[nH]cn1)NC(=O)[C@H](C)NC(=O)[C@H](CC(C)C)NC(=O)[C@H](CCCNC(N)=O)NC(=O)[C@H](CCC(N)=O)NC(=O)[C@@H](NC(=O)[C@@H](NC(=O)[C@@H]1CSSC[C@H](NC(=O)CN)C(=O)N[C@@H](CCCNC(=N)N)C(=O)N[C@@H](Cc2ccccc2)C(=O)NCC(=O)N[C@@H]([C@@H](C)O)C(=O)N1)[C@@H](C)O)C(C)C)C(=O)N[C@@H](Cc1ccc(O)cc1)C(=O)N[C@@H](CCC(N)=O)C(=O)N[C@@H](Cc1ccccc1)C(=O)N[C@H](C(=O)N[C@@H](CC(=O)O)C(=O)N[C@@H](CCCCN)C(=O)N[C@@H](CC(=O)O)C(=O)N[C@@H](CCCCN)C(=O)N[C@@H](CC(=O)O)C(=O)N[C@@H](CC(N)=O)C(=O)N[C@H](C(=O)N[C@@H](C)C(=O)N1CCC[C@H]1C(=O)N[C@@H](CCCNC(=N)N)C(=O)N[C@@H](CO)C(=O)N[C@@H](CCCCN)C(=O)N[C@H](C(=O)N[C@@H](CO)C(=O)N1CCC[C@H]1C(=O)N[C@@H](CCC(N)=O)C(=O)NCC(=O)N1C[C@H](O)C[C@H]1C(N)=O)C(C)C)C(C)C)[C@@H](C)O [compound 305] (H-GCRFGTCTVQ[Cit]LAHQIYQFTDKDKDNVAPRSKVSPQG[Hyp]-NH2; disulfide 2-7)	10.07	< 5.30	24.600%
